The text below walks through data of PubChem BioAssay (NCI).

Common to all, as to experiment: NCI-60 cell line screen, 48 h
For assay [1], the system named is CAKI-1 renal.
The test system of assay [2] is COLO 205 colon.
The test system of assay [3] is IGROV1 ovarian.
Assay [4] concerns LOX IMVI melanoma.
Assay [5] concerns MDA-N.
The test system of assay [6] is OVCAR-8 ovarian.
For assay [7], the system named is PC-3 prostate.
Assay [8] concerns RPMI-8226 leukemia.
Assay [9] deals with SF-268 CNS.
Assay [10] has as its system SK-MEL-28 melanoma.
The test system of assay [11] is SNB-75 CNS.
In assay [12] the test system is UACC-257 melanoma.
For assay [13], the system named is UACC-62 melanoma.

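Where inhibition never reached the appropriate level, the endpoint shown equals the highest concentration tested. Otherwise, values were interpolated linearly from a five-concentration, 48-hour dose response in 96-well plates. TGI marks complete inhibition of growth.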

Consider `CC1OC2=N[C@@H]1C(=O)N[C@@H](C(C)C)C1=N[C@H](C(=O)N[C@@H](C(C)C)C3=N[C@H](C(=O)N[C@@H](C(C)C)C4=N[C@H](C(=O)N[C@H]2C(C)C)C(C)O4)C(C)O3)C(C)O1` (some centres not stated), for which the TGI in assay [1], in [2], in assay [3], in assay [4], in assay [5] and in assay [6] was more than 10 µM throughout. In addition, the TGI in [7], in [8], in assay [9], in assay [10], in assay [11] and in [12] was more than 10 µM in each case.

`Cc1cc(C)c(P2C(=C(O[Si](C(C)C)(C(C)C)C(C)C)C(C)(C)C)C2(c2ccccc2)c2ccccc2)c(C)c1` (configuration not stated): the TGI in [1], in [2], in assay [3], in assay [4], in assay [5] and in assay [6] was more than 100 µM in each case. The TGI in [7], in assay [8], in assay [9], in assay [10], in [11] and in assay [12] was more than 100 µM in each case. The compound further gave a TGI in assay [13] of more than 100 µM.

As to `CC[N+](C)(CC)CCC(O)(c1ccccc1)c1ccccc1`, the TGI in [2], in [3], in [4], in [5], in assay [6] and in assay [7] was more than 100 µM each time. Besides, the TGI in [8], in assay [9], in assay [10], in assay [11], in assay [12] and in assay [13] was more than 100 µM each time.

`COc1cc2nc(-c3ccc4ccccc4c3)[nH]c(=O)c2cc1OC`: the TGI in assay [1], in assay [2], in assay [3], in assay [4], in assay [5] and in assay [6] was more than 100 µM throughout. The TGI in assay [7] is more than 100 µM; in [8], more than 100 µM; in assay [9], more than 100 µM; in assay [11], 58.3 µM; in [12], more than 100 µM; in assay [13], more than 100 µM.

Consider `O=C1CCC2(CCO1)OCCO2`, for which the TGI in [1], in assay [3], in assay [4], in [5], in [6] and in assay [7] was more than 100 µM each time. Further, the TGI in assay [9], in assay [10], in [11], in assay [12] and in [13] was more than 100 µM throughout.

Take `CC(C)=CCC[C@@H](C)C1=C(Nc2ccccc2Cl)C(O)=C(C)C(=O)C1=O`: the TGI in assay [1] is 16 µM; in assay [2] it was 9.8 µM; in assay [3] it was more than 39.1 µM; in assay [4], 98.4 µM; in assay [5], 27 µM; in [6], 9.09 µM. Also, the TGI was more than 100 µM in assay [7]; more than 28.7 µM in assay [8]; 20.2 µM in [9]; 33.5 µM in [10]; 22.3 µM in assay [11]; 27.7 µM in assay [12]. Moreover, the TGI in [13] was 18 µM.

`C/C(=N\NC(=S)N1CCCCC1)c1cccc(C)n1`: the TGI in assay [1] amounted to 12.4 µM; in [2], 13.7 µM; in assay [3], 12.8 µM; in assay [4] it was 11.3 µM; in assay [5], 20.3 µM; in [6], 2.1 µM. In addition, the TGI in [7] was 19.7 µM; in [8] it was more than 100 µM; in assay [9] it was 4.23 µM; in [10], 36.9 µM; in [11] it was 6.19 µM; in assay [12], 12.1 µM. Moreover, the TGI in assay [13] was determined as 0.352 µM.

Consider `CC1(C)OCC(C(O)C2OC(C)(C)OC2C=O)O1` (configuration not stated), for which the TGI in assay [2], in assay [3], in assay [4], in assay [5], in [6] and in assay [7] was more than 100 µM throughout. Further, the TGI in assay [8], in [9], in [10], in assay [11], in assay [12] and in assay [13] was more than 100 µM throughout.

As for `CC(=O)O[C@@H]1C[C@@]23C[C@@]24CC[C@H](OC2OCC(O)C(O)C2O)C(C)(C)[C@@H]4CC=C3[C@]2(C)C[C@@H]3OC4(C[C@@H](C)[C@@H]3[C@@]12C)OC(O)[C@@]1(C)O[C@@H]41` (some centres not stated), the TGI was more than 100 µM in [1]; 44 µM in assay [2]; more than 100 µM in [3]; 57 µM in assay [4]; more than 100 µM in assay [5]; more than 100 µM in assay [6]. Also, the TGI in assay [7] is 61.1 µM; in assay [8] it was 47.1 µM; in assay [9], more than 100 µM; in [10], more than 100 µM; in assay [11], 58.7 µM; in assay [12], 67 µM. In assay [13], this compound gave a TGI of 54.8 µM.

Consider `Cc1nc2c3c(ncn2n1)Oc1c(c(-c2ccccc2)nn1-c1ccccc1)C3c1ccc(Cl)cc1` (configuration not stated), for which the TGI in assay [1], in assay [2], in [3], in assay [4], in [5] and in assay [6] was more than 100 µM throughout. The TGI in [7], in [8], in [9], in assay [10], in assay [11] and in assay [12] was more than 100 µM throughout. Further, the TGI in assay [13] is more than 100 µM.

As for `c1ccc(CCNCc2ccco2)nc1`, the TGI in assay [1], in [2], in [3], in [4], in assay [5] and in assay [6] was more than 100 µM each time. Moreover, the TGI in [7] is more than 100 µM; in [8], more than 67.9 µM; in assay [9], more than 100 µM; in assay [10] it was more than 100 µM; in [11] it was more than 100 µM; in [12], more than 100 µM. In assay [13], this compound gave a TGI of more than 100 µM.
